In US20110300110A1, “ENAMINOCARBONYL COMPOUND/BENEFICIAL ORGANISM COMBINATIONS” (BAYER CROPSCIENCE AG, priority 2008, published 2011):

How the values were obtained:
Assay type in all cases: in vivo
[1] = test system: Coccinella septempunctata L2 larvae; assay: Larvae treatment Coccinella: kill of beneficial species larvae on Savoy cabbage
Method: (§1) Foliar treatment is carried out using compound (I-5) in a concentration of 75 g of active compound per hectare.
(§2) Drench treatment is carried out using compound (I-5) in a concentration of 10 mg of active compound per plant.
(§3) Foliar treatment with Karate Zeon CS100 as toxic control was carried out in a concentration of 12.5 g of active compound per hectare.
Beneficial species: Coccinella septempunctata L2 larvae Pest: Myzus persicae
Each experiment is carried out in 3 repetitions with in each case 2 pot cages with in each case 5 larvae.
For the experiment, Savoy cabbage plants are grown in pots having a diameter of 14 cm, placed in a breeding cage and infested thoroughly with Myzus persicae. Per experiment, 6 pots having a well-established aphid population are selected and the aphids are rated by estimation of their number. The plants are treated with the active compound solution of the appropriate concentration.
After the spray coating has dried on, a quartz sand layer of a thickness of about 1 cm is applied to the soil in the pot, and the pot cage is put over the plant. In each case 5 Coccinella larvae are then counted out, and in each case 5 specimen are added to the plants in the pot cage.
For each plant, at the beginning the Myzus persicae number is estimated at the appropriate points in time and the dead, dying and alive larvae are counted separately. All larvae, i.e. all larvae present on the plant and the surface of the quartz sand base, are counted.

Myzus persicae = assay: Larvae treatment Aphidoletes: infestation by Myzus persicae on Savoy cabbage; conditions: Savoy cabbage with Aphidoletes larvae
Method: as §1, §2, §3
(§4) Beneficial species: Aphidoletes aphidimyza larvae Pest: Myzus persicae
(§5) Each experiment is carried out in 3 repetitions.
(§6) Per plot, 6 Savoy cabbage plants are placed into a planting-out tray and infested with Myzus persicae. About 1 week later, with a well-established Myzus population, the Aphidoletes aphidimyza are added. The application is carried after about 2 weeks once sufficient L2 stage Aphidoletes larvae are present (at least 20 larvae per tray).
(§7) In preparation for the application, the plants are reduced to 4 healthy green leaves.
(§8) Immediately prior to the application, the Myzus population and the number of Aphidoletes larvae are rated. For the application, all 6 plants of a plot are placed onto the turntable, and the amount of spray liquor for 0.666 m^2 is applied while turning slowly. After the application, the trays are placed into the standard cages.
(§9) For each plant, the number of Myzus persicae is estimated at the beginning at the appropriate points in time, and the larvae are counted accurately.

[2] = test system: Aphidoletes aphidimyza larvae; assay: Larvae treatment Aphidoletes: kill of beneficial species larvae on Savoy cabbage
Method: as §1, §2, §3, §4, §5, §6, §7, §8, §9

Metopolophium dirhodum = assay: Treatment Anthocoris adult: infestation by Metopolophium dirhodum on maize; conditions: Anthocoris adults added
Method: as §1, §2, §3
(§10) Beneficial species: Anthocoris nemoralis adults Pest: Metopolophium dirhodum
(§11) Per experiment, 3 repetitions with in each case 2 pot cages with in each case 5 adults are carried out.
(§12) For the experiment, maize plants are grown in pots having a diameter of 14 cm, placed in a breeding cage and infested thoroughly with Metopolophium dirhodum. Per experiment, 6 pots having a well-established aphid population are selected and the aphids are rated by estimation of their number. The plants are treated with the active compound solution of the appropriate concentration.
(§13) After the spray coating has dried on, a quartz sand layer of a thickness of about 1 cm is applied to the soil in the pot, and the pot cage is put over the plant.
(§14) In each case 5 Anthocoris adults are then counted out, and in each case 5 specimen are added to the plants in the pot cage.
(§15) For each plant, at the beginning the Metopolophium dirhodum number is estimated at the appropriate points in time and the dead, dying and alive adults are counted separately. All adults, i.e. all adults present on the plant and the surface of the quartz sand base, are counted.

[3] = test system: Anthocoris nemoralis adults; assay: Treatment Anthocoris adult: kill of beneficial species adults on maize
Method: as §1, §2, §3, §10, §11, §12, §13, §14, §15

adult Orius laevigatus = assay: Residual test with adult Orius laevigatus on bell-pepper leaves
Method: Foliar treatment is carried out using compound (I-5) in a concentration of 100 g of active compound per hectare.
Drench treatment is carried out using compound (I-5) in a concentration of 15 mg of active compound per plant.
(§16) Foliar treatment with Karate Zeon CS100 as toxic control was carried out in a concentration of 12.5 g of active compound per hectare. The active compound in its respective formulation is brought to the required concentration by dilution with water.
Bell-pepper plants cultivated in a greenhouse are treated with the respective active compound solutions. 1, 8, 16 and 23 days after the application, leaves are plucked from the test plants (5 samples per plot). The individual leaves are then mounted in test cages. 10 adult Orius laevigatus are added to each cage. The test cages are placed under controlled conditions in a climatized chamber. The kill of the insects is determined after 24, 48 and 72 hours of exposure.

[4] = test system: adult Nesidiocoris tenuis; assay: Residual test with adult Nesidiocoris tenuis on tomato leaves
Method: Foliar treatment is carried out using compound (I-5) in a concentration of 150 g of active compound per hectare.
as §2, §16
Tomato plants cultivated in a greenhouse are treated with the respective active compound solutions. 1, 8, 15 and 22 days after the application, leaves are plucked from the test plants (5 samples per plot). The individual leaves are then mounted in test cages. 10 adult Nesidiocoris tenuis are added to each cage. The test cages are placed under controlled conditions in a climatized chamber. The kill of the insects is determined after 24, 48 and 72 hours of exposure.

[5] = 0 days after application, drench 10 mg a.i./plant
[6] = 0 days after application, foliar: (I-5) 75 g a.i./ha, Karate Zeon CS100 12.5 g a.i./ha
[7] = 1 day after application, drench 10 mg a.i./plant
[8] = 1 day after application, foliar: (I-5) 75 g a.i./ha, Karate Zeon CS100 12.5 g a.i./ha
[9] = 3 days after application, drench 10 mg a.i./plant
[10] = 3 days after application, foliar: (I-5) 75 g a.i./ha, Karate Zeon CS100 12.5 g a.i./ha
[11] = 5 days after application, drench 10 mg a.i./plant
[12] = 5 days after application, foliar: (I-5) 75 g a.i./ha, Karate Zeon CS100 12.5 g a.i./ha

In the case of O=C1C=C(N(Cc2ccc(Cl)nc2)CC(F)F)CO1 [compound (I-5), 4-{[(6-chloropyrid-3-yl)methyl](2,2-difluoroethyl)amino}furan-2(5H)-one], the “kill of Coccinella septempunctata larvae [% Abbott]” value [1, 5] is reported as 0%, the “kill of Coccinella septempunctata larvae [% Abbott]” value [1, 6] is reported as 0% and the “kill of Coccinella septempunctata larvae [% Abbott]” value [1, 7] is reported as 1.7%. For the same compound, the “kill of Coccinella septempunctata larvae [% Abbott]” value [1, 8] was 3.3%, the “kill of Coccinella septempunctata larvae [% Abbott]” value [1, 9] was 1.7% and the “kill of Coccinella septempunctata larvae [% Abbott]” value [1, 10] was 1.7%. For the same compound, the “kill of Coccinella septempunctata larvae [% Abbott]” value [1, 11] was 3.4%, the “kill of Coccinella septempunctata larvae [% Abbott]” value [1, 12] was 6.9% and the “Infestation by Myzus persicae (number per plant)” value (Myzus persicae; [11]) was 19.4 number per plant. For the same compound, the “Infestation by Myzus persicae (number per plant)” value (Myzus persicae; [12]) was 0 number per plant, the “Infestation by Myzus persicae (number per plant)” value (Myzus persicae; prior to application (baseline), drench 10 mg a.i./plant) was 367 number per plant and the “Infestation by Myzus persicae (number per plant)” value (Myzus persicae; prior to application (baseline), foliar: (I-5) 75 g a.i./ha, Karate Zeon CS100 12.5 g a.i./ha) was 344 number per plant. For the same compound, the “kill of Aphidoteles aphidimyza larvae [% Abbott]” value [2, 5] was 0%, the “kill of Aphidoteles aphidimyza larvae [% Abbott]” value [2, 6] was 0% and the “kill of Aphidoteles aphidimyza larvae [% Abbott]” value [2, 7] was 3.2%. For the same compound, the “kill of Aphidoteles aphidimyza larvae [% Abbott]” value [2, 8] was 10.2%, the “kill of Aphidoteles aphidimyza larvae [% Abbott]” value [2, 9] was 4.3% and the “kill of Aphidoteles aphidimyza larvae [% Abbott]” value [2, 10] was 10.5%. For the same compound, the “kill of Aphidoteles aphidimyza larvae [% Abbott]” value [2, 11] was 7.8%, the “kill of Aphidoteles aphidimyza larvae [% Abbott]” value [2, 12] was 15.2% and the “Infestation by Metopolophium dirhodum (number per plant)” value (Metopolophium dirhodum; [11]) was 2.5 number per plant. The “Infestation by Metopolophium dirhodum (number per plant)” value (Metopolophium dirhodum; [12]) was 0 number per plant, the “Infestation by Metopolophium dirhodum (number per plant)” value (Metopolophium dirhodum; drench 10 mg a.i./plant) was 85 number per plant and the “Infestation by Metopolophium dirhodum (number per plant)” value (Metopolophium dirhodum; foliar: (I-5) 75 g a.i./ha, Karate Zeon CS100 12.5 g a.i./ha) was 78 number per plant. For the same compound, the “kill of adult Anthocoris nemoralis [% Abbott]” value [3, 5] was 0%, the “kill of adult Anthocoris nemoralis [% Abbott]” value [3, 6] was 0% and the “kill of adult Anthocoris nemoralis [% Abbott]” value [3, 7] was 0%. For the same compound, the “kill of adult Anthocoris nemoralis [% Abbott]” value [3, 8] was 0%, the “kill of adult Anthocoris nemoralis [% Abbott]” value [3, 9] was 1.7% and the “kill of adult Anthocoris nemoralis [% Abbott]” value [3, 10] was 3.3%. For the same compound, the “kill of adult Anthocoris nemoralis [% Abbott]” value [3, 11] was 3.3%, the “kill of adult Anthocoris nemoralis [% Abbott]” value [3, 12] was 6.7% and the “Activity against adult Orius leavigatus on bell-pepper [% kill calculated according to Schneider-Orelli]” value (adult Orius laevigatus; leaves plucked 1 day after application, drench 15 mg a.i./plant) was 36.3%. For the same compound, the “Activity against adult Orius leavigatus on bell-pepper [% kill calculated according to Schneider-Orelli]” value (adult Orius laevigatus; leaves plucked 1 day after application, foliar: (I-5) 100 g a.i./ha, Karate Zeon CS100 12.5 g a.i./ha) was 100%, the “Activity against adult Orius leavigatus on bell-pepper [% kill calculated according to Schneider-Orelli]” value (adult Orius laevigatus; leaves plucked 8 days after application, drench 15 mg a.i./plant) was 86.7% and the “Activity against adult Orius leavigatus on bell-pepper [% kill calculated according to Schneider-Orelli]” value (adult Orius laevigatus; leaves plucked 8 days after application, foliar: (I-5) 100 g a.i./ha, Karate Zeon CS100 12.5 g a.i./ha) was 98.1%. For the same compound, the “Activity against adult Orius leavigatus on bell-pepper [% kill calculated according to Schneider-Orelli]” value (adult Orius laevigatus; leaves plucked 16 days after application, drench 15 mg a.i./plant) was 72.3%, the “Activity against adult Orius leavigatus on bell-pepper [% kill calculated according to Schneider-Orelli]” value (adult Orius laevigatus; leaves plucked 16 days after application, foliar: (I-5) 100 g a.i./ha, Karate Zeon CS100 12.5 g a.i./ha) was 100% and the “Activity against adult Orius leavigatus on bell-pepper [% kill calculated according to Schneider-Orelli]” value (adult Orius laevigatus; leaves plucked 23 days after application, drench 15 mg a.i./plant) was 92.1%. The “Activity against adult Orius leavigatus on bell-pepper [% kill calculated according to Schneider-Orelli]” value (adult Orius laevigatus; leaves plucked 23 days after application, foliar: (I-5) 100 g a.i./ha, Karate Zeon CS100 12.5 g a.i./ha) was 100%, the “Activity against adult Nesidiocoris tenuis on tomato [% kill according to Schneider-Orelli]” value ([4]; leaves plucked 1 day after application, drench 10 mg a.i./plant) was 4.9% and the “Activity against adult Nesidiocoris tenuis on tomato [% kill according to Schneider-Orelli]” value ([4]; leaves plucked 1 day after application, foliar: (I-5) 150 g a.i./ha, Karate Zeon CS100 12.5 g a.i./ha) was 91.1%. The “Activity against adult Nesidiocoris tenuis on tomato [% kill according to Schneider-Orelli]” value ([4]; leaves plucked 8 days after application, drench 10 mg a.i./plant) was 47.3%, the “Activity against adult Nesidiocoris tenuis on tomato [% kill according to Schneider-Orelli]” value ([4]; leaves plucked 8 days after application, foliar: (I-5) 150 g a.i./ha, Karate Zeon CS100 12.5 g a.i./ha) was 81.3% and the “Activity against adult Nesidiocoris tenuis on tomato [% kill according to Schneider-Orelli]” value ([4]; leaves plucked 15 days after application, drench 10 mg a.i./plant) was 24.4%. The “Activity against adult Nesidiocoris tenuis on tomato [% kill according to Schneider-Orelli]” value ([4]; leaves plucked 15 days after application, foliar: (I-5) 150 g a.i./ha, Karate Zeon CS100 12.5 g a.i./ha) was 32.1%, the “Activity against adult Nesidiocoris tenuis on tomato [% kill according to Schneider-Orelli]” value ([4]; leaves plucked 22 days after application, drench 10 mg a.i./plant) was 66% and the “Activity against adult Nesidiocoris tenuis on tomato [% kill according to Schneider-Orelli]” value ([4]; leaves plucked 22 days after application, foliar: (I-5) 150 g a.i./ha, Karate Zeon CS100 12.5 g a.i./ha) was 45.8%.
